# Reference: patent publication US20230345940A1, “INSECTICIDE” (Western Sydney University, priority 2020, published 2023)
# Where “and” joins values, the source holds several entries; their conditions need not be identical. Equal values may be shown once.
# Columns and labels:
# [1] = tested on: adult foraging workers of Apis mellifera; assay: Acute toxicity to honey bees, Potter Spray Tower; format: in vivo; conditions: for Knockdown (K), no. of bees / Mortality (D), no. of bees: n = 10, extract 1.0% w/v, bifenthrin 0.05% w/v
# Method: The laboratory-based bioassay was performed to assess the acute toxicity of the extracts against adult foraging workers of Apis mellifera. 3 mL aliquots of P. jaceoides extract were applied at 1.0% a.i. w/v via a Potter Spray Tower, using the methodology previously described for the preparation and application of this plant extract to test insects.
# Bifenthrin (CAS No 82657-04-3) 97.0% technical (Batch 50118) was sourced from Dr. Ehrenstorfer GmbH D-86190 Augsburg, Germany. A 0.05% w/v a.i. concentration was prepared by dissolving 0.013 g bifenthrin in 1 mL acetone, sonicating for 5 min and then diluted in a 25 mL volumetric flask with 200 ppm Triton X-100 in distilled water. It was applied using a 3 mL aliquot of the 0.05% a.i via a Potter Spray Tower; this concentration was based on recommended label rate in cotton. The control comprised 5 mL acetone and water-Triton X-100 mixture only; two controls were conducted.
# Apis mellifera foraging workers for bioassay were collected from a strong, healthy hive at Western Sydney University apiary, at Richmond NSW, Australia, by blocking the hive entrance for 1 min and collecting foragers with a sweep net.
# They were immediately transferred to a mesh cage (25×33×33 cm) and maintained in the laboratory at 24° C., where they were fed ad libidum sugar:water 1:1 w/v from cotton wool placed on the mesh at the top of the cage until bioassay, which was undertaken within 1 h of bee collection. Bees for bioassay were randomly collected from the cage using a 120 mL plastic specimen tube, and anaesthetised with medical grade CO2 for 30 s, then ten bees were placed on a 90 mm diameter Petri dish lined with filter paper. The dish with the bees was placed on the Potter Spray Tower stage, and the respective treatment applied, commencing with the control and finishing with bifenthrin treatment.
# Immediately after treatment, the treated bees were gently transferred to 250 mL glass beakers, fine nylon mesh was fitted to the top with a rubber band, and the bees fed were sugar:water as above and maintained at 26° C. in very low light. Bee activity was regularly observed and recorded, at 10 min intervals until 420 min (viz. 7 HAT), then less frequently until 48 HAT. By this time, there was bee mortality in both controls, so the investigation was terminated. Data recorded were signs of intoxication, knockdown (K) and mortality (D).
# [2] = tested on: Aphis gossypii adults and nymphs; assay: Field trial on cotton crop; format: in vivo; conditions: extract at 1.0%, clothianidin at 125 mL/ha
# Method: A trial was conducted on an irrigated commercial Bollgard II cotton crops (Sicot 74 variety) at the Australian Cotton Research Institute (ACM) in Narrabri NSW, Australia. The cotton crop used for the study comprised mature plants close to cut-out and were contaminated with Aphis gossypii from infested leaves collected from a nearby commercial cotton field at Yarral, Narrabri NSW, Australia.
# […] Each replicated plot measured 2 m (2 rows) wide and 1 m long with 2 m (rows) buffer between replicated plots. Three plants in each treatment replicate with terminals infested with aphids were randomly selected and terminals tagged for pre- and post-treatment assessments.
# The control was sprayed with 100 ppm Triton-X 100 in water only.
# Foliar application of each treatment was performed, applying the control first, then the plant extract, and finally the industry standard. Each treatment was applied to run-off using a small hand-held pressure sprayer fitted with flat fan nozzles delivering a droplet size of 200 μm (equivalent to field application of 100 L/ha). The decision to apply the treatment was made based on the IPM Guidelines and CottonLogic recommended economic threshold of 50% of plant terminals infested.
# The number of A. gossypii and beneficial species (mainly predatory insects) were assessed by visually counting A. gossypii adults and nymphs and beneficials on the upper and undersides of leaves from the 3-4 nodes below the tagged plant terminals. Pre-treatment counts were made 24 h before treatment and post treatment counts on 1, 2, 5, 6, 7, 8, 9, 12 and 14 days after treatment (DAT).
# The data for both A. gossypii adults and nymphs as well as predatory insects were each initially expressed as numbers per terminal. Data were calculated as percentage reduction of population compared to the pre-treatment count.
# Means of data on population reduction were compared using one-way ANOVA, after confirming normality, using SPSS v21. Significance was normally set at 5% (α=0.05), and when there was significance, means were separated using Duncan's Multiple range test.
structure (smiles),measurement,setting,value
Cc1c(COC(=O)[C@@H]2[C@H](/C=C(\Cl)C(F)(F)F)C2(C)C)cccc1-c1ccccc1 (racemic) [Bifenthrin],knockdown commenced,[1]; 0.05% w/v a.i.,10 MAT
same,mortality commenced,[1]; 0.05% w/v a.i.,90 MAT
same,time of 50% bee knockdown,[1]; 0.05% w/v a.i.,45-50 MAT
same,time of 50% mortality,[1]; 0.05% w/v a.i.,240 MAT
same,"Knockdown (K), no. of bees",[1]; 10 min,1K
same,"Knockdown (K), no. of bees",[1]; 20 min,1K
same,"Knockdown (K), no. of bees",[1]; 30 min,2K
same,"Knockdown (K), no. of bees",[1]; 40 min,3K
same,"Knockdown (K), no. of bees",[1]; 45 min,4K
same,"Knockdown (K), no. of bees",[1]; 50 min,6K
same,"Knockdown (K), no. of bees",[1]; 60 min,6K
same,"Knockdown (K), no. of bees",[1]; 70 min,6K
same,"Knockdown (K), no. of bees",[1]; 80 min,6K
same,"Knockdown (K), no. of bees",[1]; 90 min,5
same,"Mortality (D), no. of bees",[1]; 90 min,1
same,"Knockdown (K), no. of bees",[1]; 100 min,"3K, 3D"
same,"Mortality (D), no. of bees",[1]; 100 min,"3K, 3D"
same,"Knockdown (K), no. of bees",[1]; 110 min,"4K,"
same,"Knockdown (K), no. of bees",[1]; 120 min,"4K,"
same,"Knockdown (K), no. of bees",[1]; 130 min,"4K,"
same,"Knockdown (K), no. of bees",[1]; 140 min,3
same,"Mortality (D), no. of bees",[1]; 140 min,4
same,"Knockdown (K), no. of bees",[1]; 150 min,3
same,"Mortality (D), no. of bees",[1]; 150 min,4
same,"Knockdown (K), no. of bees",[1]; 160 min,"4K, 4D"
same,"Mortality (D), no. of bees",[1]; 160 min,"4K, 4D"
same,"Knockdown (K), no. of bees",[1]; 170 min,"4K, 4D"
same,"Mortality (D), no. of bees",[1]; 170 min,"4K, 4D"
same,"Knockdown (K), no. of bees",[1]; 180 min,"4K, 4D"
same,"Mortality (D), no. of bees",[1]; 180 min,"4K, 4D"
same,"Knockdown (K), no. of bees",[1]; 190 min,"4K, 4D"
same,"Mortality (D), no. of bees",[1]; 190 min,"4K, 4D"
same,"Knockdown (K), no. of bees",[1]; 200 min,"4K, 4D"
same,"Mortality (D), no. of bees",[1]; 200 min,"4K, 4D"
same,"Knockdown (K), no. of bees",[1]; 210 min,"4K, 4D"
same,"Mortality (D), no. of bees",[1]; 210 min,"4K, 4D"
same,"Knockdown (K), no. of bees",[1]; 220 min,5
same,"Mortality (D), no. of bees",[1]; 220 min,4
same,"Knockdown (K), no. of bees",[1]; 230 min,5
same,"Mortality (D), no. of bees",[1]; 230 min,4
same,"Knockdown (K), no. of bees",[1]; 240 min,4
same,"Mortality (D), no. of bees",[1]; 240 min,5
same,"Knockdown (K), no. of bees",[1]; 250 min,3
same,"Mortality (D), no. of bees",[1]; 250 min,6
same,"Knockdown (K), no. of bees",[1]; 260 min,3
same,"Mortality (D), no. of bees",[1]; 260 min,6
same,"Knockdown (K), no. of bees",[1]; 270 min,3
same,"Mortality (D), no. of bees",[1]; 270 min,6
same,"Knockdown (K), no. of bees",[1]; 280 min,3
same,"Mortality (D), no. of bees",[1]; 280 min,6
same,"Knockdown (K), no. of bees",[1]; 290 min,3
same,"Mortality (D), no. of bees",[1]; 290 min,6
same,"Knockdown (K), no. of bees",[1]; 300 min,3
same,"Mortality (D), no. of bees",[1]; 300 min,6
same,"Knockdown (K), no. of bees",[1]; 310 min,3
same,"Mortality (D), no. of bees",[1]; 310 min,6
same,"Knockdown (K), no. of bees",[1]; 320 min,3
same,"Mortality (D), no. of bees",[1]; 320 min,6
same,"Knockdown (K), no. of bees",[1]; 330 min,1
same,"Mortality (D), no. of bees",[1]; 330 min,8
same,"Knockdown (K), no. of bees",[1]; 340 min,1
same,"Mortality (D), no. of bees",[1]; 340 min,8
same,"Knockdown (K), no. of bees",[1]; 350 min,1
same,"Mortality (D), no. of bees",[1]; 350 min,8
same,"Knockdown (K), no. of bees",[1]; 360 min,1
same,"Mortality (D), no. of bees",[1]; 360 min,8
same,"Knockdown (K), no. of bees",[1]; 370 min,1
same,"Mortality (D), no. of bees",[1]; 370 min,8
same,"Knockdown (K), no. of bees",[1]; 380 min,1
same,"Mortality (D), no. of bees",[1]; 380 min,8
same,"Knockdown (K), no. of bees",[1]; 390 min,0
same,"Mortality (D), no. of bees",[1]; 390 min,9
same,"Knockdown (K), no. of bees",[1]; 400 min,0
same,"Mortality (D), no. of bees",[1]; 400 min,9
same,"Knockdown (K), no. of bees",[1]; 410 min,0
same,"Mortality (D), no. of bees",[1]; 410 min,9
same,"Knockdown (K), no. of bees",[1]; 420 min,0
same,"Mortality (D), no. of bees",[1]; 420 min,9
same,"Knockdown (K), no. of bees",[1]; 450 min,0
same,"Mortality (D), no. of bees",[1]; 450 min,9
same,"Mortality (D), no. of bees",[1]; 480 min,10D
same,mortality,"[1]; by 480 MAT, 0.05% w/v a.i.",100%
CN/C(=N\[N+](=O)[O-])NCc1cnc(Cl)s1 [Clothianidin],"% Reduction from pre-treatment count, Mean of plots, 1 DAT",[2]; mean of plots 1-4,54.65%
same,"% Reduction from pre-treatment count, Mean of plots, 2 DAT",[2]; mean of plots 1-4,77.18%
same,"% Reduction from pre-treatment count, Mean of plots, 5 DAT",[2]; mean of plots 1-4,"85.08a, b %"
same,"% Reduction from pre-treatment count, Mean of plots, 6 DAT",[2]; mean of plots 1-4,84.83%
same,"% Reduction from pre-treatment count, Mean of plots, 7 DAT",[2]; mean of plots 1-4,77.88%
same,"% Reduction from pre-treatment count, Mean of plots, 14 DAT",[2]; mean of plots 1-4,82.08%
same,"% Reduction from pre-treatment count (mean of 3 plants), 2 DAT","[2]; per plot, single spray",55.1% and 92.9% and 64.4% and 96.3%
same,"% Reduction from pre-treatment count (mean of 3 plants), 5 DAT","[2]; per plot, single spray",75.0% and 78.6% and 97.8% and 88.9%
same,"% Reduction from pre-treatment count (mean of 3 plants), 6 DAT","[2]; per plot, single spray",84.6% and 64.3% and 97.8% and 92.6%
same,"% Reduction from pre-treatment count (mean of 3 plants), 14 DAT","[2]; per plot, single spray",97.8% and 78.6% and 77.8% and 74.1%
